Source: article PMC10823475, “Design, Synthesis, and Evaluation of Inhibitors of Hedgehog Acyltransferase” (Journal of Medicinal Chemistry, 2024)
Values joined by “and” are separate entries in the source; they are usually repeats but may differ in a detail not shown here. Identical values can stand only once. Like-named read-outs stand apart in the source and are kept apart here.

Experiments:
[1] = target: T1, purified HHAT (Homo sapiens, UniProt Q5VTY9); experiment: Acyl-cLIP assay, inhibition of purified HHAT; format: biochemical; conditions: for LLEAcyl-cLIP: from Acyl-cLIP IC50 and clogDpH7.4; for IC50: purified HHAT, read-out: Acyl-cLIP Assay IC50 (CI95); for fold more potent than analogues 19, 32, and 34: meta-methyl on 4-position aromatic ring
T1 construct: made in house
Outline: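 Percent inhibition was first taken at 50 μM and 25 μM, then IC50 derived from variable-slope dose-response curves of initial rate constants, normalized against DMSO and HHAT-free samples. Reaction: purified DDM-solubilized HHAT transfers palmitoyl from palmitoyl-CoA onto a FAM-SHH peptide (MES, pH 6.5), monitored 30 min by fluorescence anisotropy.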

[2] = test system: HH signaling (HEK293a SHH+ conditioned media on SHH-Light2 cells); experiment: Light2 dual-luciferase cell-based HH signaling assay (Firefly)
Experimental: Subsequently, the effect of analogues on HH signaling was investigated using a cellular luciferase reporter assay. Light2 cells derived from NIH3T3 cells constitutively express Renilla luciferase as an internal control for cell density alongside Firefly luciferase under the control of a HH-responsive Gli promoter.[43] HEK293a SHH^+ cells were incubated with varying inhibitor concentrations and SHH-containing conditioned media transferred to the NIH3T3-Light2 cells to mimic paracrine signaling[30],[35] (Figure 6A).
The Light2 cell-based signaling assay has been described previously.[35] Briefly, HEK293a SHH^+ cells were plated at 120,000 cells/well of a 12-well plate in a volume of 1 mL/well and cultured as described above. After 24 h, cells were washed with PBS, followed by addition of 1 mL of media containing 0.2% DMSO or varying inhibitor concentrations in DMSO (0.041–30 μM final). Additionally, SHH-Light2 cells were plated at 20,000 cells/well of a 96-well plate in 50 μL media. After another 24 h, 300 μL of the conditioned media were collected from each well of the treated HEK293a SHH^+ cells, centrifuged at 1000g for 10 min to remove detached cells and split into three wells of the SHH-Light2 cells (100 μL/well; 150 μL final volume in each well). The treated Light2 cells were cultured for another 48 h and subsequently washed with PBS. Firefly and Renilla luciferase activity was measured using the Dual-Luciferase reporter system (Promega Corporation, USA). Then 20 μL of 1× passive lysis buffer were added to each well. After 30 min at RT, 5 μL of each lysate were transferred to a white opaque 96-well plate. Then 20 μL/well of luciferase assay reagent II was added and the luminescence immediately recorded using a SpectraMax i3x plate reader (Molecular Devices LLC). Subsequently, 20 μL/well of 1× Stop&Glo substrate in Stop&Glo buffer was added and the luminescence immediately recorded for a second time. Data was evaluated using a “sigmoidal dose response (variable slope)” model in GraphPad Prism 5 (GraphPad Software, Inc.). The luminescence signal of the Firefly luciferase was normalized to the DMSO vehicle (100%) and the unconditioned media (0%) controls.

[3] = Firefly luciferase, Light2 cells, read-out: HH signaling inhibition EC50 (CI95)

T1 sequence (Q5VTY9 whole entry): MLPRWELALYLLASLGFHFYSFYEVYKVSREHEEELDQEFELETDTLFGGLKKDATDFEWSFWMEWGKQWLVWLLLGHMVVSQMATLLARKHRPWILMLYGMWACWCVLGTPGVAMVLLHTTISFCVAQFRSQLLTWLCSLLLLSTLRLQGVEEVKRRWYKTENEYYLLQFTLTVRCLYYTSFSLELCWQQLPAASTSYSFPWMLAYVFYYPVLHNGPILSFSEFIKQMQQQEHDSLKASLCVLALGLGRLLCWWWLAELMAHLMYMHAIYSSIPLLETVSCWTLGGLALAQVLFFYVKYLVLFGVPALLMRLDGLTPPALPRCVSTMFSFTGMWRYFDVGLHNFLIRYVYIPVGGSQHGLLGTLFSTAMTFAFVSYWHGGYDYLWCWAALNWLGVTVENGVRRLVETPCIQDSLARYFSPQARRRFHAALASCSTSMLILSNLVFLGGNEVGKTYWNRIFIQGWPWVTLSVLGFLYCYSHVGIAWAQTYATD

Structure (SMILES) | inhibition at 25 µM [1] [%] | inhibition at 50 µM [1] [%] | LLEAcyl-cLIP [1] | IC50 [1] | EC50 [2, 3] [µM] | fold more potent than analogues 19, 32, and 34 [1] | HHAT inhibition in the acyl-cLIP assay [1] | effect on HH signaling [2] | fold increase in potency compared to racemate ([1]; enantiomer vs racemate (29 vs 21, 30 vs 24, 43 vs 39)) [fold] | EC50 ([2]; Light2 luciferase reporter, read-out: EC50 against HH signaling) [µM]
C=CCNCC(=O)N1CCc2sccc2C1COc1ccc(Cl)cc1 (stereo not drawn) [Compound 2] | 73 ± 9 | 87 ± 2 | 2.48 | 5.76 µM |  |  |  |  |  | 
CC(=O)N1CCc2sccc2C1c1ccccc1 (stereo not drawn) [Compound 5] | 66 ± 7 | 85 ± 5 | 2.39 | 5.3 µM and 5.34 µM | 4.56 |  |  |  |  | 
CCC(C)CNCC(=O)N1CCc2sccc2C1c1cccc(C)c1 (stereo not drawn) [Compound 17] | 93 ± 7 | 88 ± 2 | 2.91 | 2.13 µM | 1.17 | 2–5 fold |  |  |  | 
CCC(C)CNCC(=O)N1CCc2sccc2C1c1cccc(C)n1 (stereo not drawn) [Compound 22] | 96 ± 1 | 103 ± 1 | 4.20 | 2.58 µM | 0.58 | 2–5 fold |  |  |  | 
Cc1cccc(C2c3ccsc3CCN2C(=O)CNCC(C)C)n1 (stereo not drawn) [Compound 24] | 91 ± 4 | 95 ± 4 | 4.90 | 1.33 µM | 1.18 |  |  |  |  | 
Cc1cccc([C@@H]2c3ccsc3CCN2C(=O)CNCC(C)C)n1 [Compound 28] | 13 ± 4 | 18 ± 2 |  | > 100 µM | > 30 |  | no inhibitory activity | inactive |  | 
Cc1cccc([C@H]2c3ccsc3CCN2C(=O)CNCC(C)C)n1 [Compound 30] | 92 ± 4 | 95 ± 4 | 5.14 | < 10 µM | 0.1 |  |  |  | 2 | 0.099
